Columns and labels:
[1] = test system: pY641-STAT6 in Peripheral Blood Mononuclear Cells (PBMC); test: MSD-pSTAT-PBMC Assay (pSTAT6, IL-4 stimulated); assay type: cell-based, Human; conditions: compound 3 hrs, then 1 ng/mL IL-4 for 10 min
In short: (§1)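 Human PBMCs were preincubated 3 h with compound, then stimulated 10 min with 10 ng/mL IL-6 (pY705-STAT3) or 1 ng/mL IL-4 (pY641-STAT6). Lysates were read by MSD sandwich immunoassay, capturing total STAT and detecting phospho-STAT. Signal was unstimulated-subtracted and DMSO-normalised, with variable-slope IC50 binned A–D.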

[2] = test system: pY705-STAT3 in Peripheral Blood Mononuclear Cells (PBMC); test: MSD-pSTAT-PBMC Assay (pSTAT3, IL-6 stimulated); assay type: cell-based, Human; conditions: compound 3 hrs, then 10 ng/mL IL-6 for 10 min
In short: as §1

Compound | IC50 ([1]; Homo sapiens) | IC50 ([2]; Homo sapiens) | IC50 [1] | IC50 [2]
CC(=O)N1CC[C@H]2CC[C@@H](C(=O)Nc3ccc(S(C)(=O)=O)cc3)N2C(=O)[C@@H](NC(=O)c2cc3cc(C(F)(F)P(=O)(OCOC(=O)C(C)(C)C)OCOC(=O)C(C)(C)C)ccc3s2)C1 [Compound 314, ((((2-(((5S, 8S,10aR)-3-acetyl-8-((4-(methyl-sulfonyl)phenyl)carbamoyl)-6-oxodecahydro-pyrrolo[1,2-a][1,5]diazocin-5-yl)carbamoyl)benzo[b]thiophen-5-yl)difluoro-methyl)phos-phoryl)bis(oxy))bis (methylene) bis(2,2-dimethylpro-panoate)] | 100 to 1000 nM | 1000 to 3000 nM |  | 
CC(C)(C)C(=O)OCOP(=O)(OCOC(=O)C(C)(C)C)C(F)(F)c1ccc2sc(C(=O)N[C@H]3CN(CC(F)F)CC[C@H]4CC[C@@H](C(=O)N5CC(C(=O)N6CCOCC6)C5)N4C3=O)cc2c1 [Compound 351, ((((2-(((5S,8S,10aR)-3-(2,2-difluoroethyl)-8-(3-(morpholine-4-carbonyl)azetidine-1-carbonyl)-6-oxodecahydropyrrolo[1,2-a][1,5]diazocin-5-yl)carbamoyl)benzo[b]thiophen-5-yl)difluoromethyl)phosphoryl)bis (oxy))bis(methylene) bis(2,2-dimethylpropanoate)] |  |  | 1000 to 3000 nM | ≤ 100 nM
Cc1ccc2[nH]nc(C(=O)N3CC[C@H]4CC[C@@H](C(=O)N(C)C)N4C(=O)[C@@H](NC(=O)c4ccc5ccc(C(F)(F)P(=O)(OCCSC(=O)CC(C)C)OCCSC(=O)CC(C)C)cc5c4)C3)c2c1 [Compound 331, S,S′-(((((7-(((5S,8S,10aR)-8-(dimethylcarbamoyl)-3-(5-methyl-1H-indazole-3-carbonyl)-6-oxodecahydropyrrolo[1,2-a][1,5]diazocin-5-yl)carbamoyl)naphthalen-2-yl)difluoromethyl)phosphoryl)bis(oxy))bis(ethane-2,1-diyl))bis(3-methylbutanethioate)] | ≤ 100 nM | > 3000 nM |  | 
CNC(=O)[C@@H]1CC[C@@H]2CCN(C(=O)c3n[nH]c4ccc(C)cc34)C[C@H](NC(=O)c3ccc4ccc(C(F)(F)P(=O)(OCOC(=O)OC(C)C)OCOC(=O)OC(C)C)cc4c3)C(=O)N21 [Compound 328, (((difluoro(7-(((5S,8S,10aR)-3-(5-methyl-1H-indazole-3-carbonyl)-8-(methylcarbamoyl)-6-oxodecahydro-pyrrolo[1,2-a][1,5]diazocin-5-yl)carbamoyl)naphthalen-2-yl)methyl)phosphoryl)bis(oxy))bis(methylene) diisopropylbis(carbonate)] | 100 to 1000 nM | > 3000 nM |  | 
CC(C)(C)C(=O)OCOP(=O)(OCOC(=O)C(C)(C)C)C(F)(F)c1ccc2ccc(C(=O)N[C@H]3CN(CC(F)F)CC[C@H]4CC[C@@H](C(=O)N5C[C@@H](C#N)[C@H](c6ccccc6)C5)N4C3=O)cc2c1 (single isomer, unassigned) [Compound 346] | ≤ 100 nM | 100 to 1000 nM |  | 
CC(=O)N1CC[C@H]2CC[C@@H](C(=O)N(C)c3ccccc3)N2C(=O)[C@@H](NC(=O)c2cc3cc(C(F)(F)P(=O)(OCCSC(=O)C(C)(C)C)Oc4ccccc4)ccc3s2)C1 (stereo partly drawn) [Compound 289, S-(2-((((2-(((5S,8S, 10aR)-3-acetyl-8-(methyl (phenyl)carbamoyl)-6-oxodecahydro-pyrrolo[1,2-a][1,5]diazocin-5-yl)carbamoyl)benzo[b]thiophen-5-yl)difluoro-methyl) (phenoxy)phosphoryl)oxy)ethyl)2,2-dimethylpro-panethioate] | > 3000 nM | > 3000 nM |  | 
CCCC(=O)SCCOP(=O)(OCCSC(=O)CCC)C(F)(F)c1ccc2ccc(C(=O)N[C@H]3CN(C(C)=O)CC[C@H]4CC[C@@H](C(=O)N5CC(c6cc[nH]c(=O)c6)CC56CC6)N4C3=O)cc2c1 (stereo partly drawn) [Compound 332, S,S′-(((((7-(((5S,8S,10aR)-3-acetyl-6-oxo-8-(6-(2-oxo-1,2-dihydropyridin-4-yl)-4-azaspiro[2.4]heptane-4-carbonyl)decahydropyrrolo[1,2-a][1,5]diazocin-5-yl)carbamoyl)naphthalen-2-yl)difluoromethyl)phosphoryl)bis(oxy))bis(ethane-2,1-diyl))dibutanethioate] | ≤ 100 nM | > 3000 nM |  | 
CC(=O)N1CC[C@H]2CC[C@@H](C(=O)N(C)c3ccccc3)N2C(=O)[C@@H](NC(=O)c2cc3cc(C(=O)P(=O)(OCOC(=O)C(C)(C)C)OCOC(=O)C(C)(C)C)ccc3s2)C1 [Compound 307, (((2-(((5S, 8S,10aR)-3-acetyl-8-(methyl (phenyl)carbamoyl)-6-oxo-decahydro-pyrrolo[1,2-a][1,5]diazocin-5-yl)carbamoyl)benzo[b]thiophene-5-carbonyl)phosphoryl)bis(oxy))bis (methylene) bis(2,2-dimethylpro-panoate)] | > 3000 nM | > 3000 nM |  | 
CC(=O)N1CC[C@H]2CC[C@@H](C(=O)N(C)c3ccccc3)N2C(=O)[C@@H](NC(=O)/C=C/c2ccc(C(F)(F)P(=O)(OCOC(=O)C(C)(C)C)OCOC(=O)C(C)(C)C)cc2)C1 [Compound 315, ((((4-((E)-3-(((5S,8S, 10aR)-3-acetyl-8-(methyl (phenyl)carbamoyl)-6-oxodecahydro-pyrrolo[1,2-a][1,5]diazocin-5-yl)amino)-3-oxoprop-1-en-1-yl)phenyl)difluoro-methyl)phosphoryl)bis(oxy))bis (methylene) bis(2,2-dimethylpro-panoate)] | 100 to 1000 nM | > 3000 nM |  | 
CC(C)(C)C(=O)OCOP(=O)(OCOC(=O)C(C)(C)C)C(F)(F)c1ccc2ccc(C(=O)NC3CN(CC(F)F)CCC4CCC(C(=O)N5CC(C#N)C(c6cc(F)cc(F)c6)C5)N4C3=O)cc2c1 [Compound 344, ((((7-(((5S,8S,10aR)-8-((rel-trans)-3-cyano-4-(3,5-difluorophenyl)pyrrolidine-1-carbonyl)-3-(2,2-difluoroethyl)-6-oxodecahydropyrrolo[1,2-a][1,5]diazocin-5-yl)carbamoyl)naphthalen-2-yl)difluoromethyl)phosphoryl)bis(oxy)) bis(methylene) bis(2,2-dimethylpropanoate)] |  |  | 100 to 1000 nM | 1000 to 3000 nM
CC(=O)N1CC[C@H]2CC[C@@H](C(=O)Nc3ccc(-c4ccccc4)cc3)N2C(=O)[C@@H](NC(=O)/C=C/c2ccc(C(F)(F)P(=O)(OCCSC(=O)CC(C)C)OCCSC(=O)CC(C)C)cc2)C1 [Compound 325, S,S′-(((((4-((E)-3-(((5S,8S, 10aR)-8-([1,1′-biphenyl]-4-ylcarbamoyl)-3-acetyl-6-oxodecahydro-pyrrolo[1,2-a][1,5]diazocin-5-yl)amino)-3-oxoprop-1-en-1-yl)phenyl)difluoro-methyl)phosphoryl)bis(oxy))bis (ethane-2,1-diyl)) bis(3-methylbutane-thioate)] | > 3000 nM | > 3000 nM |  | 
CC(C)CC(=O)SCCOP(=O)(OCCSC(=O)CC(C)C)C(F)(F)c1ccc2ccc(C(=O)N[C@H]3CN(CC(F)F)CC[C@H]4CC[C@@H](C(=O)N5C[C@H](c6cc(F)cc(F)c6)[C@@H](C#N)C5)N4C3=O)cc2c1 (relative stereo) [Compound 341, S,S′-(((((7-(((5S,8S,10aR)-8-((rel-trans)-3-cyano-4-(3,5-difluorophenyl)pyrrolidine-1-carbonyl)-3-(2,2-difluoroethyl)-6-oxodecahydropyrrolo[1,2-a][1,5]diazocin-5-yl)carbamoyl)naphthalen-2-yl)difluoromethyl)phosphoryl)bis(oxy))bis(ethane-2,1-diyl))bis(3-methylbutanethioate)] | 1000 to 3000 nM | > 3000 nM |  | 

— patent publication US20250179103A1, “6-OXODECAHYDROPYRROLO[1,2-A][1,5]DIAZOCINE AND 6-OXODECAHYDRO-4H-PYRROLO[2,1-D][1,5]THIAZOCINE DERIVATIVES AS STAT3 AND STAT6 MODULATORS FOR THE TREATMENT OF CANCER AND INFLAMMATORY CONDITIONS” (Recludix Pharma, Inc., priority 2022, published 2025)
